Tested on: wHTel-26 (DNA, G4) TTAGGGTTAGGGTTAGGGTTAGGGTT
Test: CD melting
Conditions: 100 mM KCl; 10 mM phosphate, 1 mM EDTA, pH 7.0; 20 µM DNA, D/N 5.0

CCN(CC)CCC(=O)Nc1ccc2c(c1)C(=O)c1ccc(NC(=O)CCN(CC)CC)cc1C2=O
Tm: 10–13 (±2) °C

From publication PMC9720492 (2022)
